According to patent US12306164B2, “Therapeutic drug for lipid-peroxidation-induced diseases and screening method for therapeutic drugs for lipid-peroxidation-induced diseases” (FUSO PHARMACEUTICAL INDUSTRIES, LTD., priority 2017, dated 2025):
Where a name gives a salt, the structure may show the parent alone.

Tests used:
HepG2 cells [1] = assay: Tertiary screening, Core Library (NBD-TEEPO assay); type: cell-based, human; details: 50 μM compound, 200 μM AA or 300 μM tBHP
Description: The Core Library of Drug Discovery Initiative, the University of Tokyo, includes structural analogs for each compound. Then, secondary screening was also performed for structural analog compounds for each candidate compound in the same manner as Example 13 and the activity values were evaluated.
(§1) Specifically, the nine hit compounds, Compound Nos. 7, 19, 39, 48, 52, 64, 73, 78, 80, of the secondary screening had 5, 2, 4, 6, 6, 5, 5, 10, 2 structural analogs, respectively, thus, a total 45 structural analogs were taken. Then, including the original 9 compounds, a total 54 compounds were subjected to tertiary screening, and the activity values were calculated in the same manner.
(§2) For the evaluation of cytotoxicity, 50 μM antioxidant was added to HepG2 cells in DMEM medium (0.5% DMSO), and after incubation at 37° C. for 72 hours, the cell viability was measured. • 4) The activity values of the two-added systems in each of the assay using NBD-TEEPO and the MTT assay were plotted (FIG. 15C and FIG. 16C).

HepG2 cells [2] = assay: Secondary screening, Core Library (MTT assay); type: cell-based, human; details: 50 μM compound, 100 μM AA or tBHP, 24 hours
Description: As a cell-based screening for examining the cell death inhibitory activity, an assay using human hepatoma-derived HepG2 cells and AA and tBHP as radical initiators is performed, and the cell viability is measured. The activity value is determined from the cell viability value based on the following expression: Activity value=100(ViabilitySample−ViabilityControl(+))/(ViabilityControl(−)−ViabilityControl(+)) • ViabilitySample: Cell viability for with reaction initiator and with each compound (n=1) • ViabilityControl(+): Cell viability for with reaction initiator and with each compound • ViabilityControl(−): Cell viability for without reaction initiator and without each compound
For the compounds, 10 mM 100% DMSO solutions (dispensed at 5.0 µL/well) were provided from Drug Discovery Initiative, the University of Tokyo. 495 μL of DMEM medium for measurement was added, and 1.0% DMSO solution containing 100 μM of the compound was prepared. This solution was dispensed by 80 μL with Biomek NXP into a measuring plate on which cells were seeded in advance. To the test compound (100 μM 1.0% DMSO), 64 μL of DMEM medium, 16 μL of PBS in which AA (1000 μM, 5.0% ethanol) or tBHP (1000 μM) was dissolved were manually dispensed. The final concentration was 5.0 μM NBD-TEEPO compound, 50 μM test compound, and 100 μM AA or tBHP in DMEM medium (0.5% DMSO, 0.5% acetonitrile). After 24 hours, the medium was exchanged, and MTT solution (0.5 mg/mL, 0.5% DMSO) was added. Then, cells were incubated for 24 hours, and the solution was removed. 100 μL of DMSO was added, and the absorbance at 630 nm was measured. The cell viability was calculated according to the expression described herein, with regarding the case without AA or tBHP as 100%.

HepG2 cells [3] = assay: Tertiary screening, Core Library (MTT assay); type: cell-based, human; details: 50 μM compound, 100 μM AA or tBHP, 24 hours
Description: as §1, with “manner. […]” for “manner.”

HepG2 cells [4] = assay: Intracellular lipid peroxidation inhibition by antioxidants (NBD-TEEPO assay); type: cell-based, human; details: 200 μM AA or 300 μM tBHP, 50 μM antioxidant, 45 minutes
Description: Human hepatoma cells (HepG2 cells) were cultured with DMEM medium (containing 10% FBS, 1% Penicillin-Streptomycin and 1×MEM non-essential amino acids) in a CO2 incubator (37° C., 5% CO2). Passaging was performed when 60-70% subconfluent state was reached. DMEM media (phenol red free, containing 1% Penicillin-Streptomycin) was used for various measurements. HepG2 cells were seeded in a 96-well plate at 10,000 cells/well. The cells were incubated for 24 hours to adhere. AA (200 μM) or tBHP (0 to 300 μM), antioxidant (50 μM), and probe (5.0 μM) were added to the cells in DMEM medium (0.5% DMSO, 0.5% acetonitrile), and after 45 minutes, the fluorescence intensity was measured at an excitation wavelength of 470 nm and a fluorescence wavelength of 530 nm.

[5] = tested on: lipid peroxidation reaction in liposomes (Fe^2+ system); assay: NBD-TEEPO assay in artificial lipid membranes, Fe2+ system; type: biochemical; details: FeSO4 1 mM, Eda 0-20 μM, after 60 minutes
Description: (§3) Probes (NBD-TEEPO compound) (5.0 μM) and liposomes (2.5 mg/mL Egg PC, 0.1 mg/mL DCP) were mixed in phosphate buffer (10 mM, pH 7.4, 0.5% DMSO, 0.5% acetonitrile) at 37° C. AAPH (0-20 mM) or FeSO4 (0-2.0 mM) was added to the mixture, and the lipid peroxidation reaction was started. After 40 minutes in the AAPH system or after 60 minutes in the Fe^2+ system, the fluorescence intensity was measured at an excitation wavelength of 470 nm and a fluorescence wavelength of 530 nm.

HepG2 cells [6] = assay: Secondary screening, Core Library (NBD-TEEPO assay); type: cell-based, human; details: 50 μM compound, 200 μM AA (45 minutes) or 300 μM tBHP (60 minutes); high activity values in both systems
Description: In the screening by the cell-based assay method, activity values were determined from the values of fluorescence intensity measured in each screening using AA or tBHP as a reaction initiator, based on the following expression: Activity value=100(AUCSample−AUCBackground)/(AUCControl−AUCBackground) • AUCSample: Area under the curve calculated from the fluorescence intensity for with reaction initiator and with each compound (n=1) • AUCControl: Area under the curve calculated from fluorescence intensity for with reaction initiator and without each compound • AUCBackground: Area under the curve calculated from fluorescence intensity for without reaction initiator and without each compound
For the compounds, 10 mM 100% DMSO solutions (dispensed at 5.0 µL/well) were provided from Drug Discovery Initiative, the University of Tokyo. 495 μL of DMEM medium for measurement was added, and a 1.0% DMSO solution containing 100 μM of the compound was prepared. This solution was dispensed by 80 μL with Biomek NXP into a measuring plate on which cells were seeded in advance. To the test compound (100 μM 1.0% DMSO), 64 μL of DMEM medium (1.25% acetonitrile) containing 12.5 M NBD-TEEPO compound, and 16 μL of PBS in which AA (2000 μM, 5.0% ethanol) or tBHP (3000 μM) was dissolved were manually dispensed. The final concentration was 50 μM test compound and 200 μM AA or 300 μM tBHP in DMEM medium (0.5% DMSO, 0.5% acetonitrile).
The reaction mixture was mixed at 37° C., and the fluorescence intensity at an excitation wavelength of 470 nm and a fluorescence wavelength of 530 nm was measured over time every 3 minutes. The AUC was calculated from the fluorescence intensity for 45 minutes in the AA-added system or 60 minutes in the tBHP-added system, and the activity value of each test compound was calculated according to the expression described herein.

[7] = tested on: lipid peroxidation reaction in liposomes (AAPH system); assay: NBD-TEEPO assay in artificial lipid membranes, AAPH system; type: biochemical; details: AAPH 20 mM, AsA 0-20 μM, after 40 minutes
Description: as §3

HepG2 cells [8] = assay: Cytotoxicity evaluation at tertiary screening (MTT, compound alone); type: cell-based; details: 50 μM compound alone, 72 hours
Description: To 1.0×10^4 HepG2 cells, 50 μM compound were added, and cell viability after 72 hours was measured by an MTT assay.
as §2

[9] = not told; cited from earlier work

Compound	lipid peroxidation inhibitory effects (HepG2 cells [1])	cell death inhibitory effects (HepG2 cells [3])	further results
COC(=O)c1ccc(Nc2ccccc2)c(N)c1 [Compound 52, Methyl 3-amino-4-(phenylamino)benzoate]	high	high	inhibition rates (cell death inhibition) in both AA-added and tBHP-added systems (HepG2 cells [2]): high inhibition rates in both systems
Oc1cc(O)c2c(c1)O[C@H](c1ccc(O)c(O)c1)[C@H](O)C2 [Catechin, (−)-epicatechin]	–	–	inhibitory effect on AA- and tBHP-induced fluorescence increase (HepG2 cells [4]): strongest inhibitory effect
CC1=NN(c2ccccc2)C(=O)C1 [Eda, Edaravone]	–	–	inhibition of NBD-TEEPO fluorescence increase [5]: inhibited the fluorescence increase concentration-dependently
Cc1cc(C)cc(-n2ccc3ccc(N)cc32)c1 [Compound 78-3, 1-(3,5-Dimethylphenyl)-1H-indol-6-amine]	high	high	–
Nc1ccc2c(c1)CCN2c1ccc(OC(F)(F)F)cc1 [Compound 78, 1-(4-(Trifluoromethoxy)phenyl)indolin-5-amine]	high	high	inhibition rates (cell death inhibition) in both AA-added and tBHP-added systems (HepG2 cells [2]): high inhibition rates in both systems
NC(=O)c1cccc(-c2ccc3nc(-c4cccc(OCCO)c4)c(NCCN4CCOCC4)n3c2)c1 [Compound 73, 3-(2-(3-(2-Hydroxyethoxy)phenyl)-3-((2-morpholinoethyl)amino)imidazo[1,2-a]pyridin-6-yl)benzamide]	–	–	inhibition rates (cell death inhibition) in both AA-added and tBHP-added systems (HepG2 cells [2]): high inhibition rates in both systems
COC(=O)c1ccc(Nc2cccc(OC)c2)c(N)c1 [Compound 52-3, Methyl 3-amino-4-((3-methoxyphenyl)amino)benzoate]	high	high	–
COC(=O)c1ccc(Nc2ccc(OC)cc2)c(N)c1 [Compound 52-1, Methyl 3-amino-4-((4-methoxyphenyl)amino)benzoate]	high	high	–
CN(C)c1cc2c(cc1N)-c1ccccc1C2 [Compound 64, N^2,N^2-Dimethyl-9H-fluorene-2,3-diamine]	–	–	activity values (lipid peroxidation inhibition) in both AA-added and tBHP-added systems (HepG2 cells [6]): hit compounds
CN(C1CC(C)(C)N(O)C(C)(C)C1)S(=O)(=O)CC12CCC(CC1=O)C2(C)C (centres unmarked) [Compound 39, 1-(7,7-Dimethyl-2-oxobicyclo[2.2.1]heptan-1-yl)-N-(1-hydroxy-2,2,6,6-tetramethylpiperidin-4-yl)-N-methylmethanesulfonamide]	–	–	inhibition rates (cell death inhibition) in both AA-added and tBHP-added systems (HepG2 cells [2]): high inhibition rates in both systems
COc1cc(/C=C/c2ccc3cccc([N+](=O)[O-])c3n2)cc(OC)c1O [Compound 48, 2,6-Dimethoxy-4-(2-(8-nitroquinolin-2-yl)vinyl)phenol]	–	–	activity values (lipid peroxidation inhibition) in both AA-added and tBHP-added systems (HepG2 cells [6]): hit compounds
COc1ccc(-n2ccc3cc(N)ccc32)cc1 [Compound 78-5, 1-(4-Methoxyphenyl)-1H-indol-5-amine]	high	high	–
CC(Nc1ccc(Nc2ccccc2)cc1)C(=O)Nc1ccc(S(N)(=O)=O)cc1 (centres unmarked) [Compound 7, 2-((4-(Phenylamino)phenyl)amino)-N-(4-sulfamoylphenyl)propanamide]	–	–	activity values (lipid peroxidation inhibition) in both AA-added and tBHP-added systems (HepG2 cells [6]): hit compounds
C/C(=N/Nc1nnc(Nc2ccccc2Cl)s1)c1ccccn1 [Compound 19]	–	–	inhibition rates (cell death inhibition) in both AA-added and tBHP-added systems (HepG2 cells [2]): high inhibition rates in both systems
O=C1O[C@H]([C@@H](O)CO)C(O)=C1O [AsA, ascorbic acid]	–	–	inhibition of NBD-TEEPO fluorescence increase [7]: inhibited the fluorescence increase concentration-dependently
COc1cc(NS(C)(=O)=O)ccc1Nc1c2ccc(C)cc2nc2c1[nH]c1ccccc12 [Compound 80, N-(3-Methoxy-4-((3-methyl-1-10H-indolo[3,2-b]quinolin-11-yl)amino)phenyl)methanesulfonamide]	highest	–	cytotoxicity (HepG2 cells [8]): extremely high; activity values (lipid peroxidation inhibition) in both AA-added and tBHP-added systems (HepG2 cells [6]): hit compounds
COC(=O)c1ccc(NCc2ccccc2)c(N)c1 [Compound 52-4, Methyl 3-amino-4-(benzylamino)benzoate]	high	high	–
CSc1ccc(-n2ccc3cc(N)ccc32)cc1 [Compound 78-6, 1-(4-(Methylthio)phenyl)-1H-indol-5-amine]	high	high	–
CN1CC[C@]2(C)c3cc(O)ccc3N(C)[C@H]12 [Compound W, (−)-eseroline fumarate]	–	–	permeability to blood-retinal barrier (BRB) [9]: highly permeable
Nc1ccc2c(ccn2-c2ccc(OC(F)(F)F)cc2)c1 [Compound 78-8]	high	high	–
Cc1cc(C)cc(N2CCc3ccc(N)cc32)c1 [Compound 78-4, 1-(3,5-Dimethylphenyl)indolin-6-amine]	high	high	–
